# Laboratory results from ChEMBL document CHEMBL1145283, “3-hydroxymethyl-7-(N-substituted aminosulfonyl)-1,2,3,4-tetrahydroisoquinoline inhibitors of phenylethanolamine N-methyltransferase that display remarkable potency and selectivity” (J Med Chem, 2005).
# Target: T1, Adrenergic receptor alpha-2 (Rattus norvegicus, UniProt P22086+P19328+P22909)
# T1 sequence (P22086 whole entry): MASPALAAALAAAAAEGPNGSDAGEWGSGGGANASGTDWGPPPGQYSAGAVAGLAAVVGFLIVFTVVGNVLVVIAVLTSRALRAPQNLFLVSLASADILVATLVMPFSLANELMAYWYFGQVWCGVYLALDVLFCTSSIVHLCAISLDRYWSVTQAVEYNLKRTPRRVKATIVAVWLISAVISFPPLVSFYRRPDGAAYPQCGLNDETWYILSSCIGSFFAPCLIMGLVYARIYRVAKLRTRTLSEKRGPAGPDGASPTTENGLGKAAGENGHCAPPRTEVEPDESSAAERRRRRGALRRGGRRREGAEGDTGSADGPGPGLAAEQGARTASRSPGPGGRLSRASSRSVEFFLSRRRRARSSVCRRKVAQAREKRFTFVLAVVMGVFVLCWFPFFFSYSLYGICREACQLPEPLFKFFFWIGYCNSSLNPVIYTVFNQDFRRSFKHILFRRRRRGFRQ
# T1 sequence (P19328 whole entry): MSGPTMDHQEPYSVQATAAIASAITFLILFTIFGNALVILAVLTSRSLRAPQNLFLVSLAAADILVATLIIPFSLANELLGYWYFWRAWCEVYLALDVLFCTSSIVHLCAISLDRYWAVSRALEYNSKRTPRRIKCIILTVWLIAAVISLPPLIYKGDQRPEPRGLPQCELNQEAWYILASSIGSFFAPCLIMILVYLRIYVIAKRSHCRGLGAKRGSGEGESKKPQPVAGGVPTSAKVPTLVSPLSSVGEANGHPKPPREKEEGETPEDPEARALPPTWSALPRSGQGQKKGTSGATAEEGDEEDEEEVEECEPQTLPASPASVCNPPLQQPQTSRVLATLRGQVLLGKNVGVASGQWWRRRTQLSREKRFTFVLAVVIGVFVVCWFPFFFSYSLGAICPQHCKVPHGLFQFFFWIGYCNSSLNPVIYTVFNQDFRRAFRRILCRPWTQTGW
# T1 sequence (P22909 whole entry): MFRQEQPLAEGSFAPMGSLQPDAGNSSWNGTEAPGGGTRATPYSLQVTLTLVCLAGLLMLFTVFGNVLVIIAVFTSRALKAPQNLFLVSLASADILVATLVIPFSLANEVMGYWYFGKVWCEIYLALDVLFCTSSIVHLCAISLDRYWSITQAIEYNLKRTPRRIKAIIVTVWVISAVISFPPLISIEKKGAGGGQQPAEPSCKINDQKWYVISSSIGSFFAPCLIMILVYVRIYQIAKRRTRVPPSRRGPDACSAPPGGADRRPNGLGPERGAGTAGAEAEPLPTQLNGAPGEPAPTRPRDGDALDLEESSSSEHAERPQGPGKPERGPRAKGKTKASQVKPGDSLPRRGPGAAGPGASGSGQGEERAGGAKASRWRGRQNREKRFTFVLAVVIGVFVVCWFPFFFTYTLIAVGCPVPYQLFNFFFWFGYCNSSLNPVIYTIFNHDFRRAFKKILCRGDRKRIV
# Test: In vitro inhibition of [3H]clonidine from alpha-2 adrenergic receptor of rat cortex
row,Ki [µM],Compound
1,53,O=S(=O)(Nc1ccc(Cl)cc1)c1ccc2c(c1)CNC(CO)C2 (stereo not given)
2,210,CCNS(=O)(=O)c1ccc2c(c1)CNC(CO)C2 (stereo not given)
3,340,O=S(=O)(NCC(F)(F)F)c1ccc2c(c1)CNC(CO)C2 (stereo not given)
4,230,CCCNS(=O)(=O)c1ccc2c(c1)CNC(CO)C2 (stereo not given)
5,320,O=S(=O)(c1ccc2c(c1)CNC(CO)C2)N1CCSCC1 (stereo not given)
